Assay results published in patent publication US10464890B2, “PGAM1 inhibitors and methods related thereto” (Emory University, priority 2011, dated 2019).
Entries after “also recorded” stand apart in the source; their conditions may differ.

Columns and labels:
[1] = tested on: peripheral blood mononucleocytes and bone marrow CD34+ cells from healthy donors; test: Cells from healthy human donors; format: cell-based
Excerpt: Approval of use of human specimens was given by the Institutional Review Board of Emory University School of Medicine. All clinical samples were obtained with informed consent with approval by the Emory University Institutional Review Board. Clinical information for the patients was obtained from the pathological files at Emory University Hospital under the guidelines and with approval from the Institutional Review Board of Emory University School of Medicine and according to the Health Insurance Portability and Accountability Act. Only samples from patients that were not previously treated with chemotherapy or radiation therapy were used. Mononuclear cells (MNCs) were isolated from peripheral blood and bone marrow samples from human leukemia patients or peripheral blood samples from healthy donors using lymphocyte separation medium (Cellgro).
Only samples from patients that were not previously treated with chemotherapy or radiation therapy were used. Mononuclear cells (MNCs) were isolated from peripheral blood and bone marrow samples from human leukemia patients or peripheral blood samples from healthy donors using lymphocyte separation medium (Cellgro).

[2] = tested on: human dermal fibroblasts (HDF), human foreskin fibroblasts (HFF), HaCaT keratinocyte cells, melanocyte PIG1 cells; test: Cell proliferation of normal human cells; format: cell-based
Description: For leukemia cell proliferation assay, 10×10^4 cells were seeded in non-tissue culture coated 6-well plate and incubated at 37° C. for indicated times. Cell numbers were counted by trypan blue exclusion under a microscope (×40) at indicated times and the percentage of cell proliferation was determined by comparing PGAM1 knockdown cells to pLKO.1 vector expressing cells. […] Cell viability was determined by counting drug-treated cells compared to DMSO-treated control cells with trypan blue exclusion under a microscope (×40) and by using CellTiter96Aqueous One solution proliferation kit (Promega). For adherent cell proliferation assay such as H1299 and MDA-MB231 cells, 5×10^4 cells were seeded in 6-well plate 24 h before the assay starts and were cultured at 37° C. 24 h after seeding, cells were treated with 5 μM Methyl-2PG and incubated at 37° C. for indicated times. Cell proliferation was determined by the increase in cell number indicated times after the treatment starts compared to that at the treatment starts for each cell line (T=0). Cell numbers were counted by trypan blue exclusion under a microscope (×40). […] Cell viability was determined by counting drug-treated cells compared to DMSO-treated control cells with trypan blue exclusion under a microscope (×40). […] Cell viability was determined by using CellTiter96Aqueous One solution proliferation kit (Promega).

[3] = molecular target: T1, PGAM1 in leukemia KG1a cells (Homo sapiens, UniProt P18669); test: PGAM1 inhibition in leukemia KG1a cells; format: cell-based; conditions: leukemia KG1a cells (2h); compared to alizarin, alizarin Red S, PGMI-001A
T1 construct: endogenous in cells; host or cells: KG1a leukemia cells; H1299 lung cancer cells
T1 sequence (P18669 whole entry): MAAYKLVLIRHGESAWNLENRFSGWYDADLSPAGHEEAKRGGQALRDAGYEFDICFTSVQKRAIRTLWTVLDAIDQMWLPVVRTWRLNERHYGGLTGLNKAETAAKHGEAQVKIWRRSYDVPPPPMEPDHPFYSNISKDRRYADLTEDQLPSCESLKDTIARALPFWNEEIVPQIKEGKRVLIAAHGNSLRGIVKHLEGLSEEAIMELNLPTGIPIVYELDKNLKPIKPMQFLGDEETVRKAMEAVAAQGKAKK

[4] = tested on: H1299 cells; test: Cellular 2-PG and 3-PG measurement; format: cell-based, human
Description: Cellular metabolites were extracted and spectrophotometrically measured as described previously with some modifications. To determine cellular concentration of 2-PG and 3-PG, 100 μL of packed cell pellets were homogenized in 1.5 ml of hypotonic lysis buffer (20 mM HEPES (pH 7.0), 5 mM KCl, 1 mM MgCl2, 5 mM DTT, and protease inhibitor cocktail). The homogenates were centrifuged in a cold room at 4° C. for 10 minutes at maximum speed, and the supernatants were applied to Amicon Ultra tubes with 10KDa cut off filter (Millipore). The flow through containing the metabolites was used for the measurement. NADH, ADP, and MgCl2 were added to the flow through to final concentrations of 0.14 mM, 1 mM, and 50 mM, respectively. Recombinant LDH and PKM1 proteins were added to final concentrations of 5 μg/ml and 10 μg/ml, respectively. Recombinant enolase protein was added to a final concentration of 50 μg/ml to measure cellular 2-PG. Once the reaction was initiated by enolase, a decrease in absorbance at 340 nm from NADH oxidation was measured by a DU800 spectrophotometer (Beckman). After termination of the enolase reaction, recombinant PGAM1 protein was added to a final concentration of 25 μg/ml and the decrease in absorbance at 340 nm was immediately monitored to measure cellular 3-PG. 100 μL of 2-PG and 3-PG (Sigma) diluted with 1.5 ml of hypotonic lysis buffer were used as the standards.
Alternatively, perchloric acid was used to quench metabolism and the acid extracts from H1299 cell lysates were then neutralized with KOH (DeBerardinis et al., 2007), followed by enzymatic reactions using the final supernatant to determine the 3-PG and 2-PG levels. An isotope-ratio based detection method was used to determine intracellular 3-PG and 2-PG levels in cells. In brief, pure standards were derivatized with a trimethylsilyl donor (Tri-Sil, Pierce) and used to determine the retention times of 2-PG and 3-PG on GC/MS. These standards were also used to identify parent ions containing all three 2-PG and 3-PG carbons on the derivatized molecule (m/z 459 for both 2-PG and 3-PG), and to generate algorithms for natural isotope abundance correction. Next, two dishes of H1299 cells were cultured in RPMI supplemented with [U-^13C]glucose so that approximately 25% of the total glucose pool was labeled. After 6 hours of culture, the cells were quickly rinsed in ice-cold normal saline, lysed in 1 mL of cold 50% methanol, and frozen in liquid nitrogen. […] The second sample was spiked with 25 nmoles of unlabeled 2-PG and 3-PG, derivatized, and analyzed by GC/MS. […] Assuming a 100 μL volume for the cell pellet, these figures correlate to intracellular concentrations of 66 μM for 2-PG and 81 μM for 3-PG, very close to the values measured by the enzymatic assay.

[5] = H1299 cells treated with PGMI-004A

Row | Compound | cell viability of CD34+ cells isolated from bone marrow samples ([1]; four healthy donors) | cell viability of mononucleocytes in peripheral blood samples ([1]; two healthy human donors, 120 h) | cell proliferation / non-specific toxicity in normal cells [2] | potency of PGAM1 inhibition in cells [3] | 2-PG levels [4, 5] | 3-PG levels [4, 5] | 2-PG cellular levels ([4]; diverse PGAM1 knockdown cancer cells treated with methyl-2-PG) | 3-PG concentrations ([4]; diverse PGAM1 knockdown cells treated with methyl-2-PG)
1 | O=C1c2ccccc2C(=O)c2c1cc(S(=O)(=O)Nc1ccc(C(F)(F)F)cc1)c(O)c2O [PGMI-004A, N-(4-trifluoromethyl)-penyl-3,4-dihydroxy-9,10-dioxo-2-anthracenesulfonamide] | did not affect cell viability | no toxicity; also recorded: did not affect cell viability | does not affect cell proliferation; also recorded: minimal non-specific toxicity | more potent activity; also recorded: enhanced potency to inhibit PGAM1 | decreased | increased |  | 
2 | COC(=O)[C@@H](CO)OP(=O)(O)O [methyl-2-PG, methyl ester of D(+)-2-phosphoglyceric acid, reference compound] |  |  |  |  |  |  | increased 2-PG cellular levels | decreased 3-PG concentrations
